Experimental data reported in patent US20230094952A1, “Method for Culturing Hematopoietic Stem Cells” (Sumitomo Pharma Co., Ltd., priority 2019, published 2023).

Experiments:
[1] = system: human CD34-positive fraction; test: Ex vivo culture of 10000 human CD34-positive cells before transplantation (cell count); format: cell-based; conditions: compound 0.01 μM; 10000 CD34-positive cells cultured 1 week
Protocol: (§1) Each of artemether and the compound of Example 1-23 was prepared with the cell culture medium at a final concentration of 0.003 μM or 0.01 μM, and added to the above human cells seeded after classification (166 cells were seeded per well) to a final volume of 200 μL/well to act thereon. Thereafter, for each condition, 10000 cells in total of a CD34-positive fraction were cultured in a CO2 incubator under conditions of 37° C. and 5% CO2 for 1 week, and the cell count was determined. Among the cells after culture, 10000 cells, a number equal to the number of cells before culture, were transplanted into an immunocompromised NOG mouse exposed to a lethal dose of radiation. As a comparative sample, 10000 fresh cord blood-derived CD34-positive cells (uncultured) were transplanted. For peripheral blood donor chimerism at each specified time after transplantation, the human CD45-positive cell count and the mouse CD45-positive cell count were determined by using a human-specific CD45 antibody and a mouse-specific CD45 antibody, and the peripheral blood donor chimerism was represented as the proportion of human CD45-positive cells to the total of human CD45-positive cells and mouse CD45-positive cells (chimerism rate).

[2] = system: human hematopoietic stem cells (CD34-positive cells); test: Functional test with human cells: colony assay (CFU-GEMM) after culture; format: cell-based; conditions: 1 week culture then 2 weeks MethoCult H4435, no UM171
Protocol: Each of artemether and the compounds of Example 1-23, Example 1-16, and Example 1-7 was prepared with the cell culture medium at nine final concentrations (0.001 μM, 0.003 μM, 0.01 μM, 0.03 μM, 0.1 μM, 0.3 μM, 1 μM, 3 μM, 10 μM), and added to the above human cells seeded after classification to a final volume of 200 μL/well to act thereon. UM171 (35 nM) was added to some of them to examine the presence or absence of synergistic effect. Thereafter, the cells were cultured in a CO2 incubator under conditions of 37° C. and 5% CO2 for 1 week, collected, and then seeded in a 96-well plate to place one CD34-positive cell in each well by using a FACS Aria III cell sorter, and cultured with a MethoCult H4435 ([…] Technologies Inc.) for 2 weeks. After culture, each well was photographed with an optical microscope (manufactured by KEYENCE CORPORATION), and the colony count was determined by visual observation and the form of each colony was determined by visual observation. Colony Formation Unit-Granulocytes, Erythroids, Macrophages, Megakaryocytes (CFU-GEMM), which are derived from myeloid progenitor cells, the erythroid burst colony-forming cells Burst Forming Unit-Erythroids (BFU-E), the granulocyte/macrophage colony-forming cells Colony Formation Unit-Granulocytes, Macrophages (CFU-GM) were determined on the basis of the forms of colonies, and the numbers were counted.

[3] = system: human CD34-positive cells transplanted into NOG mouse; test: In vivo engraftment test with human cells in irradiated NOG mouse (peripheral blood donor chimerism); conditions: cells cultured with compound 0.01 μM, 10000 cells transplanted
Protocol: as §1

[4] = system: human hematopoietic stem cells (CD34-positive cells); test: Confirmation test with human cells: 1-week culture of cord blood Lineage-negative CD34-positive cells, flow cytometry; format: cell-based; conditions: 180 cells before culture, no UM171
Text: Collection of Human Cord Blood-Derived Mononuclear Cells Human cord blood-derived mononuclear cells were subjected to removal of erythrocytes and concentration treatment by using EasySep RBC Depletion Reagent (manufactured by […] Technologies Inc.) to obtain a cell population including hematopoietic stem cells.
First, a CD34-positive cell fraction was partially purified from the thus-obtained cell population including hematopoietic stem cells by using an EASYSep Human Cord Blood CD34 Positive Selection Kit II (manufactured by […] Technologies Inc.). The concentrated CD34-positive cells in a cell population enriched with hematopoietic stem cells and progenitor cells were stained with antibodies for the following cell surface markers.
Staining with the antibodies was performed at 4° C., and the cells were incubated for 30 minutes. For staining with the CD34 antibody, the cells were incubated for 90 minutes. Dead cell staining was performed with SYTOX Blue Dead Cell Stain (manufactured by Life Technologies) in accordance with a method recommended by the manufacturer.
Flow cytometry analysis and cell classification (cell sorting) were performed with a FACS Aria III cell sorter (manufactured by BD Biosciences), wherein fractions being Lineage-negative and CD34-positive were regarded as hematopoietic stem cells, and analysis was performed with the software FlowJo (manufactured by Tree Star, Inc.).
The cells after classification were seeded in a 96-well plate. […]
Each of artemether and the compounds of Example 1-23, Example 1-16, and Example 1-7 was prepared with the cell culture medium at nine final concentrations (0.001 μM, 0.003 μM, 0.01 μM, 0.03 μM, 0.1 μM, 0.3 μM, 1 μM, 3 μM, 10 μM), and added to the above human cells seeded after classification to a final volume of 200 μL/well to act thereon. UM171 (35 nM) was added to some of them to examine the presence or absence of synergistic effect. Thereafter, the cells were cultured in a CO2 incubator under conditions of 37° C. and 5% CO2 for 1 week. Viable cell counts and CD34-positive cell counts were analyzed.
After culture, the cells were stained with the antibodies for the surface markers CD34, CD11b, CD14, CD19, CD20, CD235ab, CD3, CD4, CD56, and CD8a, and the visible cell count and the ratio and post-growth cell count of a CD34 fraction (CD34^+, Lin^−) were measured by using a FACS Aria III cell sorter, and analyzed by using FlowJo (BD Biosciences). The CD34 fraction is a fraction including hematopoietic stem cells and multipotent progenitor cells as main components.

## COCCO[C@H]1O[C@@H]2O[C@@]3(C)CC[C@H]4[C@H](C)CC[C@@H]([C@H]1C)[C@@]24OO3 [Example 1-23, (3R,5aS,6R,8aS,9R,10S,12R,12aR)-10-(2-methoxyethoxy)-3,6,9-trimethyldecahydro-12H-3,12-epoxypyrano[4,3-j][1,2]benzodioxepine]
[1]
  Viable cell count: 20071 cell
[2]; compound 0.001 μM
  Colony count (colony) after culture (CFU-GEMM): 171.3 colony
[2]; compound 0.003 μM
  Colony count (colony) after culture (CFU-GEMM): 39.9 colony
[2]; compound 0.01 μM
  Colony count (colony) after culture (CFU-GEMM): 76.8 colony
[2]; compound 0.03 μM
  Colony count (colony) after culture (CFU-GEMM): 22.5 colony
[2]; compound 0.1 μM
  Colony count (colony) after culture (CFU-GEMM): 13.4 colony
[2]; compound 0.3 μM
  Colony count (colony) after culture (CFU-GEMM): 3.9 colony
[2]; compound 1 μM
  Colony count (colony) after culture (CFU-GEMM): 12.0 colony
[2]; compound 3 μM
  Colony count (colony) after culture (CFU-GEMM): 4.5 colony
[2]; compound 10 μM
  Colony count (colony) after culture (CFU-GEMM): 0.0 colony
[3]; 1 month after transplantation
  Donor chimerism: 0.299 ± 0.049%
[3]; 2 months after transplantation
  Donor chimerism: 0.748 ± 0.585%
[4]; compound 0.001 μM
  CD34-positive cell count: 156 cell
  Viable cell count: 1581 cell
[4]; compound 0.003 μM
  CD34-positive cell count: 65 cell
  Viable cell count: 797 cell
[4]; compound 0.01 μM
  CD34-positive cell count: 72 cell
  Viable cell count: 1152 cell
[4]; compound 0.03 μM
  CD34-positive cell count: 63 cell
  Viable cell count: 901 cell
[4]; compound 0.1 μM
  CD34-positive cell count: 28 cell
  Viable cell count: 537 cell
[4]; compound 0.3 μM
  CD34-positive cell count: 19 cell
  Viable cell count: 462 cell
[4]; compound 1 μM
  CD34-positive cell count: 16 cell
  Viable cell count: 480 cell
[4]; compound 3 μM
  CD34-positive cell count: 15 cell
  Viable cell count: 269 cell
[4]; compound 10 μM
  CD34-positive cell count: 0 cell
  Viable cell count: 333 cell
